Data: ChEMBL document CHEMBL4825686, “HTS-based discovery and optimization of novel positive allosteric modulators of the α7 nicotinic acetylcholine receptor” (Eur J Med Chem, 2021)
The source made the active and inactive calls. No cut-off for these calls is given here.

What was measured:
[1] = target: Neuronal acetylcholine receptor; alpha3/beta4 (Homo sapiens) (UniProt P30926+P32297); test: Agonist activity at alpha3beta4 nAChR (unknown origin) upto 30 uM by automated Q-patch clamp assay; conditions: dose microM <=30
[2] = Ratio of drug level in Wistar rat brain to plasma at 3 mg/kg, ip measured after 35 mins by HPLC-MS/MS analysis; type: ADME, organism-based; conditions: read-out: BPR
[3] = Ratio of drug level in Wistar rat brain to plasma at 1 mg/kg, ip measured after 35 mins by HPLC-MS/MS analysis; type: ADME, organism-based; conditions: read-out: BPR
[4] = target: GABA-A receptor; alpha-5/beta-3/gamma-2 (Homo sapiens) (UniProt P18507+P28472+P31644); test: Inhibition of human alpha5beta3gamma2 GABAA receptor expressed in HEK293 cells assessed as inhibition of GABA induced channel current response at 1 to 10 uM measured after 7 to 10 mins at -80 mV holding potential by whole-cell patch clamp assay; type: cell-based; conditions: dose 1-10 µM, time 7-10 min
[5] = target: T1, GABA-A receptor; alpha-1/beta-3/gamma-2 (Homo sapiens) (UniProt P14867+P18507+P28472); test: Activation of human alpha1beta3gamma2 GABAA receptor expressed in HEK293 cells assessed as enhancement of GABA induced channel current response at 1 to 10 uM measured after 7 to 10 mins at -80 mV holding potential by whole-cell patch clamp assay; type: cell-based; conditions: dose 1-10 µM, time 7-10 min
[6] = target: T1, GABA-A receptor; alpha-1/beta-3/gamma-2 (Homo sapiens); test: Inhibition of human alpha1beta3gamma2 GABAA receptor expressed in HEK293 cells assessed as inhibition of GABA induced channel current response at 1 to 10 uM measured after 7 to 10 mins at -80 mV holding potential by whole-cell patch clamp assay; type: cell-based; conditions: dose 1-10 µM, time 7-10 min
Mus musculus = test: Cognitive enhancing effect in scopolamine-induced amnesia NMRI mouse model assessed as increase in recognition index at 1 to 10 mg/kg, ip administered 30 mins prior to scopolamine injection by Y-maze test; type: functional, organism-based; conditions: dose 1-10 mg/kg
[7] = Metabolic stability in human liver microsomes assessed as intrinsic clearance at 1 uM measured per mg protein upto 40 mins; type: ADME, Microsome; conditions: read-out: CLH
[8] = target: 5-hydroxytryptamine receptor 2B (Homo sapiens) (UniProt P41595); test: Binding affinity to human recombinant 5-HT2B receptor assessed as displacement of radioligand at 10 uM by displacement binding assay
5-hydroxytryptamine receptor 2B (Homo sapiens), sequence (P41595 whole entry): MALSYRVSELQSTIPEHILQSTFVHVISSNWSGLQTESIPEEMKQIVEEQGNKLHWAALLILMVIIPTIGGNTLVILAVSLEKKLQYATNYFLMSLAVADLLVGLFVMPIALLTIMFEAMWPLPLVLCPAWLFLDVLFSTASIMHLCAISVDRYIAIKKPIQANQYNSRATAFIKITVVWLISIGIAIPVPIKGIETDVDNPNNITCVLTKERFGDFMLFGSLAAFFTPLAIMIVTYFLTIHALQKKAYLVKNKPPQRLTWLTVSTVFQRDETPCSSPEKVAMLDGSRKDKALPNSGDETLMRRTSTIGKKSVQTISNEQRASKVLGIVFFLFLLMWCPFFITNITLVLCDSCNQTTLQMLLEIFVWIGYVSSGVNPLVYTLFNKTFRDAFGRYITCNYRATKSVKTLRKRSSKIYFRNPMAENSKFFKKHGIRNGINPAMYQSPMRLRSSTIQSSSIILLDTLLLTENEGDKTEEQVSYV

[9] = target: T2, 5-hydroxytryptamine receptor 3A (Homo sapiens) (UniProt P46098); test: Displacement of [3H]GR65630 from human 5-HT3 receptor expressed in HEK293 cells at 10 uM by displacement binding assay; type: cell-based
T2 sequence (whole entry): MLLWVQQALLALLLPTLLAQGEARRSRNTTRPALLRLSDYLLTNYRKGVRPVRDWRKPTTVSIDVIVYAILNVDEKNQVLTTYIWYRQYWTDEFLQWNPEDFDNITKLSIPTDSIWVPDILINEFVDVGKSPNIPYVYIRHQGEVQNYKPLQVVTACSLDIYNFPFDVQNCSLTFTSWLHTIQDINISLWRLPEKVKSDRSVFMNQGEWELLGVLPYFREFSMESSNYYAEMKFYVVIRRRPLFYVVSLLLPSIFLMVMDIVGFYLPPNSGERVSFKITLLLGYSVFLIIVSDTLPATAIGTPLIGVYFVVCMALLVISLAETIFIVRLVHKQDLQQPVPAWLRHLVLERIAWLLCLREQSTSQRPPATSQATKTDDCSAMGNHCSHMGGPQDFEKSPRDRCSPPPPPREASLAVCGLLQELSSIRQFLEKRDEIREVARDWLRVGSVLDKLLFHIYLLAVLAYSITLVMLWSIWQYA

[10] = target: T3, Glutamate NMDA receptor (Rattus norvegicus) (UniProt P35439+Q00959+Q00960+Q00961+Q62645+Q8VHN2+Q9R1M7); test: Displacement of [3H]MDL105519 from NMDA receptor in Wistar rat cerebral cortex at 10 uM by displacement binding assay; type: tissue-based
[11] = target: T3, Glutamate NMDA receptor (Rattus norvegicus); test: Displacement of [3H]CGP39653 from NMDA receptor in Wistar rat cerebral cortex at 10 uM by displacement binding assay; type: tissue-based
[12] = target: GABA-A receptor; anion channel (Rattus norvegicus) (UniProt O09028+P15431+P18506+P18508+P19969+P20236+P23574+P23576+P28471+P28473+P30191+P62813+P63079+P63138+Q91ZM7+Q9ES14); test: Displacement of [3H]muscimol from GABAA receptor in Wistar rat brain without cerebellum at 10 uM by displacement binding assay; type: tissue-based
[13] = Efflux ratio of apparent permeability from basolateral to apical side over apical to basolateral side in vinblastine-treated human Caco-2 cells expressing P-glycoprotein at 10 uM incubated for 120 mins by HPLC analysis; type: ADME
Rattus norvegicus = test: Cognitive enhancing effect in Hannover Wistar rat assessed as increase in novel object recognition index at 1 to 10 mg/kg, po administered 30 mins prior to recognition trail by novel object recognition test; type: functional, organism-based; conditions: dose 1-10 mg/kg
[14] = Drug uptake in NMRI mouse brain at 0.1 mg/kg, ip measured after 1 hr by HPLC-MS/MS analysis; type: ADME, organism-based; conditions: read-out: Ct
[15] = Drug uptake in NMRI mouse brain at 0.3 mg/kg, ip measured after 1 hr by HPLC-MS/MS analysis; type: ADME, organism-based; conditions: read-out: Ct
[16] = Drug uptake in NMRI mouse brain at 1 mg/kg, ip measured after 1 hr by HPLC-MS/MS analysis; type: ADME, organism-based; conditions: read-out: Ct
[17] = Plasma concentration in NMRI mouse at 0.1 mg/kg, ip measured after 1 hr by HPLC-MS/MS analysis; type: ADME, organism-based
[18] = Plasma concentration in NMRI mouse at 1 mg/kg, ip measured after 1 hr by HPLC-MS/MS analysis; type: ADME, organism-based
[19] = Plasma concentration in NMRI mouse at 3 mg/kg, ip measured after 1 hr by HPLC-MS/MS analysis; type: ADME, organism-based
[20] = Plasma concentration in NMRI mouse at 10 mg/kg, ip measured after 1 hr by HPLC-MS/MS analysis; type: ADME, organism-based
[21] = Ratio of drug level in NMRI mouse brain to plasma at 0.1 mg/kg, ip measured after 1 hr by HPLC-MS/MS analysis; type: ADME, organism-based; conditions: read-out: BPR
[22] = Ratio of drug level in NMRI mouse brain to plasma at 3 mg/kg, ip measured after 1 hr by HPLC-MS/MS analysis; type: ADME, organism-based; conditions: read-out: BPR
[23] = Drug uptake in Wistar rat brain at 1 mg/kg, ip measured after 35 mins by HPLC-MS/MS analysis; type: ADME, organism-based; conditions: read-out: Ct
[24] = Drug uptake in Wistar rat brain at 10 mg/kg, ip measured after 35 mins by HPLC-MS/MS analysis; type: ADME, organism-based; conditions: read-out: Ct
[25] = Plasma concentration in Wistar rat at 3 mg/kg, ip measured after 35 mins by HPLC-MS/MS analysis; type: ADME, organism-based
[26] = Mutagenicity in Salmonella typhimurium TA98 in absence of rat liver S9 fraction by AMES test; type: toxicity; conditions: salmonella enterica subsp. enterica serovar typhimurium
[27] = Mutagenicity in Salmonella typhimurium TA1537 in presence of rat liver S9 fraction by AMES test; type: toxicity, subcellular; conditions: salmonella enterica subsp. enterica serovar typhimurium
[28] = Lipophilicity, logP of the compound; type: physicochemical; conditions: octanol/water

Cc1ccc(CN2CCN(C(=O)C(=O)Nc3ccc4c(ccn4C)c3)CC2)cc1
Activity [1]: inactive
Kp at 35 min [2]: 3.8
Kp at 35 min [3]: 4.93
inhibition [4]: < 7%
Activity [5]: < 7%
inhibition [6]: < 7%
Activity (Mus musculus): Active
microsomal CLint at 1 µM [7]: 15 µL/min/mg
inhibition [8]: 98%
inhibition [9]: < 15%
inhibition [10]: < 15%
inhibition [11]: < 15%
inhibition [12]: < 15%
efflux ratio at 2 h, 10 µM [13]: 0.7
Activity (Rattus norvegicus): inactive
concentration at 1 h [14]: 3.1 nM
concentration at 1 h [15]: 5.5 nM
concentration at 1 h [16]: 39 nM
concentration at 1 h [17]: 2.1 nM
concentration at 1 h [18]: 21 nM
concentration at 1 h [19]: 37 nM
concentration at 1 h [20]: 142 nM
Kp at 1 h [21]: 1.32
Kp at 1 h [22]: 1.68
concentration at 35 min [23]: 135 nM
concentration at 35 min [24]: 657 nM
concentration at 35 min [25]: 54 nM
Activity [26]: Non-Toxic
Activity [27]: Non-Toxic
logP [28]: 3.7
